# Laboratory results: patent publication US6617350B2, “Inhibitors of aspartyl protease” (priority 1999, dated 2003)
# System: HIV-1 (strain IIIB)
# Assay: microbe, parasite or virus in culture
# Type: cell-based
# Details: Human immunodeficiency virus 1, IIIB, MT4, MT-4 cells; comparison compound; read-out: IC50 in the MT-4 cell based assay
row,SMILES,IC50 [nM]
1,"CC(C)CN(CC(O)C(Cc1ccccc1)NC(=O)OC1CCOC1)S(=O)(=O)c1ccc(N)cc1 [Compound A, 4-amino-N-((2 syn, 3S)-2-hydroxy-4-phenyl-3-((S)-tetrahydrofuran-3-yloxycarbonylamino)-butyl)-N-isobutyl-benzenesulfonamide, reference compound]",80

# Same assay, conditions: Human immunodeficiency virus 1, IIIB, MT4, Table 12; anti-viral potency in MT-4 cells; read-out: IC50
row,SMILES,IC50 [nM]
1,"CCC(CCC1(C)OCCO1)CN(C[C@@H](O)[C@H](Cc1ccccc1)NC(=O)OC(C)(C)C)S(=O)(=O)c1ccc(OC)cc1 (mixture of isomers) [Compound 202, tert-ButylN-((1S,2R)-1-benzyl-3-[2-ethyl-4-(2-methyl-1,3-dioxolan-2-yl)butyl][(4-methoxyphenyl)sulfonyl]amino-2-hydroxypropyl)carbamate]",> 1000
2,"CCOC(=O)CNC(=O)NCCCC(C)(C)CN(CC(O)C(Cc1ccccc1)NC(=O)OC1COC2OCCC12)S(=O)(=O)c1ccc(OC)cc1 (mixture of isomers) [Compound 216, Ethyl (3S,4R)-1-[(3R,3aS,6aR)hexahydrofuro[2,3-b]furan-3-yloxy]-3-benzyl-4-hydroxy-6-[(4-methoxyphenyl)sulfonyl]-8,8-dimethyl-1,13-dioxo-2,6,12,14-tetraazahexadecan-16-oate and Ethyl (3S,4R)-1-[(3S,3aR,6aS)hexahydrofuro[2,3-b]furan-3-yloxy]-3-benzyl-4-hydroxy-6-[(4-methoxyphenyl)sulfonyl]-8,8-dimethyl-1,13-dioxo-2,6,12,14-tetraazahexadecan-16-oate]",≤ 100
3,"COc1ccc(S(=O)(=O)N(CC(C)CCC#N)CC(O)C(Cc2ccccc2)NC(=O)OC(C)(C)C)cc1 [Compound 2, ter-Butyl N-((1S,2R)-1-benzyl-3-[(2RS)-(4-cyano-2-methylbutyl)][(4-methoxyphenyl)sulfonyl]amino-2-hydroxypropyl)carbamate]",> 1000
4,"CC(C)(CCC#N)CN(C[C@@H](O)[C@H](Cc1ccccc1)NC(=O)OC(C)(C)C)S(=O)(=O)c1cccc(N)c1 [Compound 5, tert-ButylN-((1S,2R)-3-[(3-aminophenyl)sulfonyl](4-cyano-2,2-dimethylbutyl)amino-1-benzyl-2-hydroxypropyl)carbamate]",> 1000
5,"COc1ccc(S(=O)(=O)N(CC(C)CCC#N)CC(O)C(Cc2ccccc2)NC(=O)OC2CCOC2)cc1 [Compound 8, (3S)-Tetrahydro-3-furanyl N-((1S,2R)-1-benzyl-3-[(2RS)-4-cyano-2-methyl][(4-methoxyphenyl)sulfonyl]amino-2-hydroxypropyl)carbamate]",≤ 100

# Same assay, conditions: Human immunodeficiency virus 1, IIIB, MT4, Table 13; MT-4 cell based assay; class symbol; read-out: IC50
row,SMILES,IC50 [nM]
1,CC(C)(CCNC(=O)C(C)(C)C)CN(C[C@@H](O)[C@H](Cc1ccccc1)NC(=O)O[C@H]1CO[C@H]2OCC[C@H]21)S(=O)(=O)c1ccc2c(c1)OCO2 [Compound 374],1 to 10
2,CC(C)(CCNC(=O)C1CCC1)CN(C[C@@H](O)[C@H](Cc1ccccc1)NC(=O)O[C@H]1CO[C@H]2OCC[C@H]21)S(=O)(=O)c1ccc2c(c1)OCO2 [Compound 375],1 to 10
3,CC(C)CC(=O)NCCC(C)(C)CN(C[C@@H](O)[C@H](Cc1ccccc1)NC(=O)O[C@H]1CO[C@H]2OCC[C@H]21)S(=O)(=O)c1ccc2c(c1)OCO2 [Compound 376],1 to 10
4,CC(C)(CCNC(=O)c1ccccc1)CN(C[C@@H](O)[C@H](Cc1ccccc1)NC(=O)O[C@H]1CO[C@H]2OCC[C@H]21)S(=O)(=O)c1ccc2c(c1)OCO2 [Compound 377],1 to 10
5,CC(C)(CCNC(=O)c1ccco1)CN(C[C@@H](O)[C@H](Cc1ccccc1)NC(=O)O[C@H]1CO[C@H]2OCC[C@H]21)S(=O)(=O)c1ccc2c(c1)OCO2 [Compound 378],1 to 10
6,CC(C)(CCNC(=O)c1cccs1)CN(C[C@@H](O)[C@H](Cc1ccccc1)NC(=O)O[C@H]1CO[C@H]2OCC[C@H]21)S(=O)(=O)c1ccc2c(c1)OCO2 [Compound 379],1 to 10

# Same assay, conditions: Human immunodeficiency virus 1, IIIB, MT4, Table 13; MT-4 cell based assay; numeric value, comparison compound; read-out: IC50
row,SMILES,IC50 [nM]
1,"CC(C)CN(CC(O)C(Cc1ccccc1)NC(=O)OC1CCOC1)S(=O)(=O)c1ccc(N)cc1 [Compound A, 4-amino-N-((2 syn, 3S)-2-hydroxy-4-phenyl-3-((S)-tetrahydrofuran-3-yloxycarbonylamino)-butyl)-N-isobutyl-benzenesulfonamide, reference compound]",80

# Same assay, conditions: Human immunodeficiency virus 1, IIIB, MT4, antiviral assay, MT4 cells infected with HIV-1 (strain IIIB); class symbol; read-out: IC50 (activity range)
row,SMILES,IC50 [nM]
1,"CC(C)(CCCCN)CN(C[C@@H](O)[C@H](Cc1ccccc1)NC(=O)O[C@H]1CCOC1)S(=O)(=O)c1ccc2c(c1)OCO2 [Compound 295, (3S)-tetrahydro-3-furanyl N-(1S,2R)-3-[(1,3-benzodioxol-5-ylsulfonyl)(6-amino-2,2-dimethylhexyl)amino]-1-benzyl-2-hydroxypropylcarbamate]",100 to 500
2,"CC(C)(CCCCN)CN(CC(O)[C@H](Cc1ccccc1)NC(=O)OC1CCOC1)S(=O)(=O)c1ccc(N)cc1 (stereo partly drawn) [Compound 296, (3S)-tetrahydro-3-furanyl N-(1S,2R)-3-[(4-aminophenylsulfonyl)(6-amino-2,2-dimethylhexyl)amino]-1-benzyl-2-hydroxypropylcarbamate]",100 to 500
3,"CC(C)(CCCCN)CN(CC(O)[C@H](Cc1ccccc1)NC(=O)OC1COCOC1)S(=O)(=O)c1ccc2c(c1)OCO2 (stereo partly drawn) [Compound 297, [1,3]-dioxan-5-yl N-(1S,2R)-3-[(1,3-benzodioxol-5-ylsulfonyl)(6-amino-2,2-dimethylhexyl)amino]-1-benzyl-2-hydroxypropylcarbamate]",100 to 500
4,CC(C)(CCNC(=O)CCC1CCCC1)CN(C[C@@H](O)[C@H](Cc1ccccc1)NC(=O)O[C@H]1CO[C@H]2OCC[C@H]21)S(=O)(=O)c1ccc2c(c1)OCO2 [Compound 402],100 to 500
5,"CC(C)(CCNC(=O)CN)CN(CC(O)C(Cc1ccccc1)NC(=O)OC1COC2OCCC12)S(=O)(=O)c1ccc2c(c1)OCO2 [Compound 520, (3R,3aS,6aR)hexahydrofuro[2,3-b]furan-3-yl N-(1S,2R)-3-[(4-[(amino)acetylamino]-2,2-dimethylbutyl)(1,3-benzodioxol-5-ylsulfonyl)amino]-1-benzyl-2-hydroxypropylcarbamate]",100 to 500
6,CC(=O)NCC(=O)NCCC(C)(C)CN(CC(O)C(Cc1ccccc1)NC(=O)OC1COC2OCCC12)S(=O)(=O)c1ccc2c(c1)OCO2 (stereo not drawn) [Compound 523],100 to 500
7,CN(C)C(=O)NCC(=O)NCCC(C)(C)CN(CC(O)C(Cc1ccccc1)NC(=O)OC1COC2OCCC12)S(=O)(=O)c1ccc2c(c1)OCO2 (stereo not drawn) [Compound 526],100 to 500
8,COCC(=O)NCC(=O)NCCC(C)(C)CN(CC(O)C(Cc1ccccc1)NC(=O)OC1COC2OCCC12)S(=O)(=O)c1ccc2c(c1)OCO2 (stereo not drawn) [Compound 527],100 to 500
9,CC(C)(CCNC(=O)CNS(C)(=O)=O)CN(CC(O)C(Cc1ccccc1)NC(=O)OC1COC2OCCC12)S(=O)(=O)c1ccc2c(c1)OCO2 (stereo not drawn) [Compound 528],100 to 500
10,CN(C)C(=O)NCC(=O)NCCCCC(C)(C)CN(CC(O)C(Cc1ccccc1)NC(=O)OC1COC2OCCC12)S(=O)(=O)c1ccc2c(c1)OCO2 (stereo not drawn) [Compound 540],100 to 500
11,CC(C)(CCCCNC(=O)CNS(C)(=O)=O)CN(CC(O)C(Cc1ccccc1)NC(=O)OC1COC2OCCC12)S(=O)(=O)c1ccc2c(c1)OCO2 (stereo not drawn) [Compound 542],100 to 500
12,CN(C)C(=NC#N)NCCC(C)(C)CN(CC(O)C(Cc1ccccc1)NC(=O)OC1COC2OCCC12)S(=O)(=O)c1ccc2c(c1)OCO2 (stereo not drawn) [Compound 563],100 to 500
13,CC(C)(CCOC(=O)NO)CN(CC(O)C(Cc1ccccc1)NC(=O)OC1COC2OCCC12)S(=O)(=O)c1ccc2c(c1)OCO2 (stereo not drawn) [Compound 605],100 to 500

# Biological target: HIV-1 protease (Human immunodeficiency virus type 1 group M subtype B, UniProt P04585)
# Assay: biochemical
# Details: not given
row,SMILES,Ki [nM]
1,CNC(=O)NCC(=O)NCCC(C)(C)CN(CC(O)C(Cc1ccccc1)NC(=O)OC1COC2OCCC12)S(=O)(=O)c1ccc2c(c1)OCO2 (stereo not drawn) [Compound 529],< 1
2,CNC(=O)NCC(=O)NCCCC(C)(C)CN(CC(O)C(Cc1ccccc1)NC(=O)OC1COC2OCCC12)S(=O)(=O)c1ccc2c(c1)OCO2 (stereo not drawn) [Compound 536],< 1
3,CNC(=O)NCC(=O)NCCCCC(C)(C)CN(CC(O)C(Cc1ccccc1)NC(=O)OC1COC2OCCC12)S(=O)(=O)c1ccc2c(c1)OCO2 (stereo not drawn) [Compound 543],< 1

# Same assay, conditions: Table 12; HIV-1 protease; read-out: Ki
row,SMILES,Ki [nM]
1,"CCC(CCC1(C)OCCO1)CN(C[C@@H](O)[C@H](Cc1ccccc1)NC(=O)OC(C)(C)C)S(=O)(=O)c1ccc(OC)cc1 (mixture of isomers) [Compound 202, tert-ButylN-((1S,2R)-1-benzyl-3-[2-ethyl-4-(2-methyl-1,3-dioxolan-2-yl)butyl][(4-methoxyphenyl)sulfonyl]amino-2-hydroxypropyl)carbamate]",1 to 10
2,"CCOC(=O)CNC(=O)NCCCC(C)(C)CN(CC(O)C(Cc1ccccc1)NC(=O)OC1COC2OCCC12)S(=O)(=O)c1ccc(OC)cc1 (mixture of isomers) [Compound 216, Ethyl (3S,4R)-1-[(3R,3aS,6aR)hexahydrofuro[2,3-b]furan-3-yloxy]-3-benzyl-4-hydroxy-6-[(4-methoxyphenyl)sulfonyl]-8,8-dimethyl-1,13-dioxo-2,6,12,14-tetraazahexadecan-16-oate and Ethyl (3S,4R)-1-[(3S,3aR,6aS)hexahydrofuro[2,3-b]furan-3-yloxy]-3-benzyl-4-hydroxy-6-[(4-methoxyphenyl)sulfonyl]-8,8-dimethyl-1,13-dioxo-2,6,12,14-tetraazahexadecan-16-oate]",< 1
3,"COc1ccc(S(=O)(=O)N(CC(C)CCC#N)CC(O)C(Cc2ccccc2)NC(=O)OC(C)(C)C)cc1 [Compound 2, ter-Butyl N-((1S,2R)-1-benzyl-3-[(2RS)-(4-cyano-2-methylbutyl)][(4-methoxyphenyl)sulfonyl]amino-2-hydroxypropyl)carbamate]",< 1
4,"CC(C)(CCC#N)CN(C[C@@H](O)[C@H](Cc1ccccc1)NC(=O)OC(C)(C)C)S(=O)(=O)c1cccc(N)c1 [Compound 5, tert-ButylN-((1S,2R)-3-[(3-aminophenyl)sulfonyl](4-cyano-2,2-dimethylbutyl)amino-1-benzyl-2-hydroxypropyl)carbamate]",< 1
5,"CC(C)(CCC#N)CN(C[C@@H](O)[C@H](Cc1ccccc1)NC(=O)OC(C)(C)C)S(=O)(=O)c1ccc2c(c1)OCO2 [Compound 6, {(1S,2R)-3-[(Benzo[1,3]dioxole-5-sulfonyl)-(4-cyano-2,2-dimethyl-butyl)-amino]-1-benzyl-2-hydroxy-propyl}-carbamic acid tert-butyl ester]",< 1
6,"COc1ccc(S(=O)(=O)N(CC(C)CCC#N)CC(O)C(Cc2ccccc2)NC(=O)OC2CCOC2)cc1 [Compound 8, (3S)-Tetrahydro-3-furanyl N-((1S,2R)-1-benzyl-3-[(2RS)-4-cyano-2-methyl][(4-methoxyphenyl)sulfonyl]amino-2-hydroxypropyl)carbamate]",< 1
7,"CCNc1cccc(S(=O)(=O)N(CC(O)C(Cc2ccccc2)NC(=O)OC2COC3OCCC23)CC(C)(C)CCC#N)c1 [Compound 44, {(1S,2R)-3-[(3-N-ethylaminophenyl)sulfonyl]-(4-cyano-2,2-dimethyl-butyl)-amino]-1-benzyl-2-hydroxy-propyl}carbamic acid (3R,3aS,6aR)hexahydro-furo[2,3-b]furan-3-yl ester]",< 1
8,COc1ccc(S(=O)(=O)N(CCC#N)C[C@@H](O)[C@H](Cc2ccccc2)NC(=O)OC(C)(C)C)cc1 [Compound 123],10 to 100
9,CC(C)(C)OC(=O)N[C@@H](Cc1ccccc1)[C@H](O)CN(CCC#N)S(=O)(=O)c1cccc(N)c1 [Compound 127],10 to 100
10,"COc1ccc(S(=O)(=O)N(CC(O)[C@H](Cc2ccccc2)NC(=O)OC(C)(C)C)CC(C)(C)CCOC(N)=O)cc1 (stereo partly drawn) [Compound 234, ter-Butyl N-((1S,2R)-1-benzyl-3-(4-carbamoyloxy-2,2-dimethylbutyl)[(4-methoxyphenyl)sulfonyl]amino-2-hydroxypropyl)carbamate]",< 1
11,COc1ccc(S(=O)(=O)N(CCC(C)CCC=O)C[C@@H](O)[C@H](Cc2ccccc2)NC(=O)OC(C)(C)C)cc1 (stereo partly drawn) [Compound 277],1 to 10
12,CC(CCC=O)CCN(C[C@@H](O)[C@H](Cc1ccccc1)NC(=O)OC(C)(C)C)S(=O)(=O)c1ccc2c(c1)OCO2 (stereo partly drawn) [Compound 278],1 to 10
13,COc1ccc(S(=O)(=O)N(CCC(C)=O)C[C@@H](O)[C@H](Cc2ccccc2)NC(=O)OC(C)(C)C)cc1 [Compound 279],10 to 100
